In patent EP0497921B1, “METHOD FOR INHIBITING ENZYMATIC SYNTHESIS OF NUCLEIC ACIDS USING ISOPSORALENS” (ISAACS, Stephen T., priority 1989, dated 1991):
Marks after values point to notes of the source that are not given here.

Assays:
[1] = Solubility of photoreactive compounds in 1 X TE (optical density of filtrate); assay type: physicochemical; details: 1 x te
Experimental: The solubilities of AMIP, AMDMIP, DMIP, MIP and isopsoralen (IP) were determined experimentally according to the scheme set forth in Figure 5. To perform the solubility measurement, it was first necessary to establish known optical densities for a 1 µg/ml solution of each compound. These were determined by preparing either ethanolic or aqueous stocks of each compound at known concentrations in 1 x TE, then measuring the optical density of each solution. From this information, the absorption of a 1 µg/ml solution was computed. Alternatively, the extinction coefficient may be thus determined and used in the same fashion. In this manner, the following absorption data was collected:
Following this step, undissolved compound was removed by filtration using a 0.2 u nylon-66 syringe filter (Arco LC13; Gelman). The concentration of the remaining soluble compound was then determined by measuring the optical density of the filtrate and computing the solubility from the known optical density of a 1 µg/ml solution of that compound. The solubility of the compounds was thus determined to be as follows: […]

Taq polymerase = Taq polymerase (Thermus aquaticus, UniProt P19821); test: Primer extension on 71-mer after random addition of compound or addition of photoproduct; assay type: biochemical; details: for extension products, irradiated samples: 71-mer irradiated 15 minutes on CE-I at 25°C with AMIP (200 µg/ml), AMDMIP (200 µg/ml) or MIP (60 µg/ml), extension 5 minutes at 55°C
From the text: In this experiment, the ability of AMIP, AMDMIP and MIP to block replication of 71-mer is investigated by randomly adding each compound to the 71-mer. of course, addition may only be random in the sense that one or more adducts may be formed with any one strand of nucleic acid. The actual placement of the isopsoralen may be governed by preferential binding at particular sites (e.g. A:T). In addition to blockage by random adducts, photoproducts of the various isopsoralens may be providing an inhibitory effect. No attempt to separate the effects of photoproduct from the effects of covalent adducts on the 71-mer template was made in this series of experiments.
In these experiments, the 71-mer template (10^-9 M) was primed with ^32P-SK-39 (10^-8) and extended with Taq polymerase in a total volume of 20 µl. The dNTP concentration was 200 µM. In the control samples, the 71-mer, the primer, and the dNTPs were mixed in Taq buffer in a volume of 18 µl. These samples were initially denatured at 95°C for 5 minutes, followed by equilibration at 550C for 3 minutes. Taq enzyme was then added (0.5 units) and the extension reaction was carried out for 5 minutes at 55°C. The reaction was stopped by making the solution 10 mM in EDTA. In another set of samples, the 71-mer in 10 µl was mixed with either AMIP (200 µg/ml), AMDMIP (200 µg/ml), or MIP (60 µg/ml). Half of these samples were irradiated for 15 minutes on the CE-I device at 25°C. The other half was kept in the dark as controls. These samples were then mixed with the primer and dNTPs as before, and were subjected to the same thermal profile and extension reactions as the samples that were described earlier. The results were examined by PAGE. The extended product bands were identified by autoradiography, excised and counted (data not shown).
In this experiment, the ability of two different Phenylazide derivatives (see Table 1), photobiotin (Vector Labs) and monoazide ethidium chloride, to block replication of 71-mer was investigated by randomly adding each compound to the 71-mer. Again, addition may only be random in the sense that one or more adducts may be formed with any one strand of nucleic acid. The actual placement of these compounds may be governed by preferential binding at particular sites (e.g. A:T). In addition to blockage by random adducts, there may be inhibition by photoproducts. As in Example 23, no attempt was made to separate the impact of photoproducts from that of covalent binding of photoreactive compound on the 71-mer.
The two compounds, photobiotin and monoazide ethidium chloride, have different spectral characteristics. To activate these compounds, two different wavelength regions were selected using a single light source (General Electric Sunlamp, Model RSM, 275 watt). The light source was positioned 10 cm above uncapped Eppendorph tubes which contained samples to be irradiated. The samples were kept on ice during irradiation. A pyrex dish was placed between the lamp and the samples.
For samples containing photobiotin, 2.5 cm of water was added to the pyrex dish to help remove some of the infrared radiation. The samples were irradiated for 15 minutes.
For samples containing monoazide ethidium chloride, wavelengths less than 400 nm were filtered out by using 2.5 cm of an aqueous solution of 2.9 M NaNO2. Removal of short wavelengths (i.e. wavelengths shorter than 400 nm) is necessary for the use of monoazide ethidium chloride. Irradiation of this compound with shorter wavelengths results in conversion to non-active forms (data not shown). Wavelengths below 400 nm are therefore undesirable for use with this compound.
In this experiment, the 71-mer template (2 x 10^-9 M) in 10 µl was mixed with either no photoreactive compound, photobiotin (6 x 10^-6 M), or monoazide ethidium (1.4 x 10^-3 M). Half of each of these samples were irradiated on ice for 15 minutes with wavelengths appropriate for each specific photoreactive compound. […]

500-mer = test: Post-amplification sterilization: isopsoralen plus irradiation, reamplification of carryover; assay type: biochemical, lambda; details: CE-III 15 minutes, 500-mer PCR product, 30 cycles
Experimental: The two PCR targets used in these experiments were a 115-mer (SK-38/SK-39 HIV system) and a 500-mer. The 500-mer target is obtained from a PCR amplification of a lambda plasmid with primers PCR 01/02. This system is provided by Cetus/Perkin Elmer as a control in their commercial kits of PCR reagents (Catalogue No. N801-0055). For both of these systems equivalent copy numbers of each target were prepared in the following manner: An initial 30 cycle PCR reaction was carried out for each system with the appropriate primers and targets. Aliquots (approximately 10^5-10^6 target copies) of each of these reactions were transferred to a second set of PCR reactions. These second sets of PCR amplifications were carried out in the presence of α-^32P-dCTP, again for 30 cycles. Aliquots of these reactions were removed and counted by liquid scintillation counting. With these numbers, the specific activity of the α-32P-dCTP, and the sequence of each of the PCR product oligonucleotides (115-mer and 500-mer), the concentrations of each of the two PCR product oligonucleotides in the second set of PCR reaction tubes was determined. Both the 115-mer and the 500-mer concentrations were then adjusted to exactly 1 x 10^-8 M by the addition of additional Taq buffer. These stocks of equivalent copy number of PCR products were then used for further investigation. Each of the stock solutions then was subdivided into four reaction tubes. The reaction tubes were adjusted to contain the following: Tube 1, 100 µg/ml AMIP; Tube 2, 400 µg/ml AMIP; Tube 3, 100 µg/ml AMDMIP; and Tube 4, 400 µg/ml AMDMIP. Each of these samples were again split into two portions, one part being irradiated for 15 minutes at room temperature with the CE-III device and the other part kept in the dark. Serial dilutions of the irradiated and the unirradiated targets were then carried out on these samples for 30 cycles in the presence of α-32P-CTP. Aliquots of these samples were analyzed on denaturing polyacrylamide gels. The PCR product bands were visualized by autoradiography, cut, and counted in a liquid scintillation counter.

Chain of Taq polymerase (P19821 whole entry): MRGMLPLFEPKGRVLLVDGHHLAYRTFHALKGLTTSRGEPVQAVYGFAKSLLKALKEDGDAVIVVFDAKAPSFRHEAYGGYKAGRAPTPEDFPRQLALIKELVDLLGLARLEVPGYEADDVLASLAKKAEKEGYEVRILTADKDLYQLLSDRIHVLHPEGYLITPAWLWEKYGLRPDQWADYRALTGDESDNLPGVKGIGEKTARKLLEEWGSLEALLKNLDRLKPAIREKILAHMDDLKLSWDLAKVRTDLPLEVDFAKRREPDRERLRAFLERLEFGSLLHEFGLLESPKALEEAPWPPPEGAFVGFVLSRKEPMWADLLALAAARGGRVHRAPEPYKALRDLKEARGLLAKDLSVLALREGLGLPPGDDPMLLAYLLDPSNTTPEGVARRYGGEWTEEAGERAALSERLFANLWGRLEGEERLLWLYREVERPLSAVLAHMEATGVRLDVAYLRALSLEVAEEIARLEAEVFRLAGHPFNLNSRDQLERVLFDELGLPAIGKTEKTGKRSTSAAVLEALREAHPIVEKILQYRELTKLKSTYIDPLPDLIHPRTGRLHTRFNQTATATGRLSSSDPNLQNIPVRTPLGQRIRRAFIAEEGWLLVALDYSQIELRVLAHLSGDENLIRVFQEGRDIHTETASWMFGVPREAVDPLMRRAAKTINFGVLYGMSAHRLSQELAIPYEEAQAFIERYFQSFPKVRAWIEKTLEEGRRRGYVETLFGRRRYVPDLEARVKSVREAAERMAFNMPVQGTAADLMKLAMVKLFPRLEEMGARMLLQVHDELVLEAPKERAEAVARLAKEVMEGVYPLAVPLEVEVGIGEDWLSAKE

Molecule | Solubility in 1 X TE [1] | extension products, 71-mer irradiated in the presence of AMDMIP (Taq polymerase; 200 µg/ml AMDMIP, CE-I device at 25°C) | extension products, irradiated samples (Taq polymerase) | extension products, dark controls (Taq polymerase; unirradiated AMDMIP added to unirradiated 71-mer) | sterilization sensitivity (molecules of carryover sterilized) (500-mer; 100 µg/ml) | sterilization sensitivity (molecules of carryover sterilized) (500-mer; 400 µg/ml) | amount of full length product relative to the control samples (Taq polymerase; irradiated MIP (60 µg/ml))
4'-Aminomethyl-4,5'-dimethylisopsoralen [AMDMIP] | > 22,700 * µg/ml | no extension products at all | not extended at all | full length extension product | ≥ 6 x 10^9 carryover molecules | no signal in the irradiated dilution series | –
5-Aminomethylisopsoralen [AMIP] | 21,000 µg/ml | – | not extended at all | – | more effectively sterilized than the 115-mer PCR product | ≥ 6 x 10^9 molecules of carryover | –
Cc1cc2occc2c2oc(=O)ccc12 [MIP, 5-Methylisopsoralen] | – | – | some full length extension product and a minor truncated product | – | – | – | half
